Patent US9394338B2, “Glutathione analogs and uses thereof” (REGENTS OF THE UNIVERSITY OF MINNESOTA, priority 2011, dated 2016)

How the values were obtained:
SH-SY-5Y cells = assay: cells; type: cell-based; conditions: for % Inhibition of Cell Growth with Aβ1-42 / % Inhibition of Cell Growth without Aβ1-42: compound 1 mM 24 h; for % Inhibition of Cell Growth with Aβ1-42: then 20 μM Aβ1-42 24 h
Experimental: (§1) Cytotoxicity Studies: Protection against β-amyloid 1-42 cytotoxicity in SH-SY-5Y cells was measured by standard MTT assays. SH-SY-5Y cells were seeded in 96-well plates at the density of 30,000 cells/well. After overnight incubation, the cells were exposed to GSH or Ψ-GSH at a concentration of 1 mM for 24 h at 37° C. After 24 h of incubation, the drug-containing medium was replaced with media containing 20 μM β-amyloid 1-42 peptide and the incubation was allowed to continue for additional 24 hours after the addition of the drugs. At the end of the incubation, 20 μL of MTT stock solution (5 mg/mL) was added to each well and incubated for 3 h at 37° C. The MTT reaction medium was discarded and the purple-blue MTT formazan crystals were dissolved by the addition of 100 μL of 0.1 N HCl in isopropanol. The optical density (OD), a reflection mitochondrial function of the viable cells, was read directly with a microplate reader (BioTek SynergyHT, VT, USA) at 580 nm and a reference wavelength of 680 nm. Concentration response graphs were generated for each drug using GraphPad Prism software (GraphPad Software, Inc., San Diego, Calif., USA). Results are expressed as mean percent inhibition of β-amyloid toxicity with the standard error of the mean. In another set of experiments, cells were preincubated with a glyoxalase I inhibitor, S-(p-bromobenzylglutathione) (1 mM) for 24 hours before addition of βamyloid1-42 peptide (20 μM).
as §1, with “Protection” for “Cytotoxicity Studies: Protection”, “against β-amyloid^1-42” for “against β-amyloid 1-42”, “cells/well. […]” for “cells/well. After overnight incubation, the cells were exposed to GSH or Ψ-GSH at a concentration of 1 mM for 24 h at 37° C.”, “μM β-amyloid^1-42” for “μM β-amyloid 1-42”, “20 μl,” for “20 μL”, “mean.” for “mean. In another set of experiments, cells were preincubated with a glyoxalase I inhibitor, S-(p-bromobenzylglutathione) (1 mM) for 24 hours before addition of βamyloid1-42 peptide (20 μM).”

Swiss Webster Mice = assay: ACP (acetaminophen) overdose rescue and effects on normal liver; type: in vivo; conditions: 370 mg/kg ACP + NAC 7.35 mmol/kg
Experimental: 36-Male Swiss Webster Mice (HSD) were fasted over-night and then brought to the lab at 8:00 am the following day and weighed. Food was kept out of the cages until after the final drug injection. Mice were divided into treatment groups as below in Table 2.
Thirty minutes post overdose with 370 mg/kg ACP, the following were evaluated for the groups in Table 2:
N-acetylcysteine (NAC) at 7.35 mmol/kg;
Ψ-GSH at three different doses, 3.67, 2.45 and 1.22 mmol/kg; and
examine effects of Ψ-GSH on normal liver at rescue doses.

yeast glyoxalase I = molecular target: T1, yeast glyoxalase I (Saccharomyces cerevisiae, UniProt P50107); assay: Glyoxalase I enzyme kinetics assay; type: biochemical; conditions: yeast Glx-I, MG, 30° C., phosphate buffer pH 6.6
T1 construct: purchased Sigma
T1 sequence (P50107 1-326): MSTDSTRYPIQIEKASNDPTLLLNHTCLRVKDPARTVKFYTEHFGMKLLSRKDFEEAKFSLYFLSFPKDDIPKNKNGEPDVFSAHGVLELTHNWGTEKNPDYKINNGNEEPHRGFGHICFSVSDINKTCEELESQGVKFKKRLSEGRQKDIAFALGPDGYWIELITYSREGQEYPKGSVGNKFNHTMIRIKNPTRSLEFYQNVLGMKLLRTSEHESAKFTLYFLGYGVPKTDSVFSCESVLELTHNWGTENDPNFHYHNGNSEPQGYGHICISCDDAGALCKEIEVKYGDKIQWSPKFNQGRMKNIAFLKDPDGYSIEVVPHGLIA
Experimental: Glyoxalase I Enzyme Kinetics Assay. The glutathione analog, Ψ-GSH and asparthione were examined for their ability to act as substrates for the yeast glyoxalase I mediated […] of MG. The commercial 40% methylglyoxal solution was distilled to remove polymerization products. Enzyme assays were performed (30° C., 0.05 M phosphate buffer (pH 6.6)) using a thermostated Beckman DU® 7400 spectrophotometer. Fresh solutions of GSH, Ψ-GSH and asparthione were prepared on the day of the assays with distilled, deionized water. In each assay, the cell contained a total volume of 3.0 mL which was no more than 6.0 mM with respect to methylglyoxal and 1.3 mM with respect to GSH or its analogs. […] Data were analyzed utilizing an Enzyme kinetics module of Sigmaplot 9.0 from Systat Software Inc.

Compound | % Inhibition of Cell Growth with Aβ1-42 (SH-SY-5Y cells; SH-SY-5Y) | % Inhibition of Cell Growth without Aβ1-42 (SH-SY-5Y cells; SH-SY-5Y) | further results
N[C@@H](CCC(=O)N[C@@H](CSCc1ccc(Br)cc1)C(=O)NCC(=O)O)C(=O)O [GSBB, S-p-bromobenzylglutathione, reference compound] | – | – | cell death (SH-SY-5Y cells; 1 mM compound alone, SH-SY-5Y): 10%; viability at 1000 µM (SH-SY-5Y cells; Homo sapiens, SH-SY5Y, Aβ in combination with 1 mM GSBB, read-out: Percentage cell viability): 23.6%
CC(=O)N[C@@H](CS)C(=O)O [NAC, N-acetylcysteine, reference compound] | – | – | death of animals in the group (Swiss Webster Mice): 50%
N[C@@H](CC(=O)N[C@@H](CS)C(=O)NCC(=O)O)C(=O)O [asparthione] | – | – | slope for initial velocity vs. substrate concentration (yeast glyoxalase I): 0.0132±0.0136
Boc-γ-Gla(OtBu)-Cys-Gly-OtBu [Compound VI] | 18% | 2% | –
Boc-γ-Gla-Cys-Gly-OH [Compound V] | 10% | 1% | –
Boc-γ-Gla[-Cys(StBu)-Gly-OtBu]-OtBu [Compound 7] | 41% | 0% | –
HCl•γ-Gla[-Cys-Gly-OtBu]-OtBu [Compound VIII] | 50% | 1% | –
HCl•γ-Gla[Cys-Gly-OCyP]-OcyP [Compound X] | 27% | 0% | –
HCl•γ-Gla[Cys-Gly-OiPr]-OiPr [Compound IX] | 31% | 0% | –
N-acetyl-γ-Gla-Cys-Gly-OH [IV] | 3% | 0% | –
[γ-Gla-Cys-Gly-OH]2 [Compound XI] | 24% | 1% | –
γ-Glo-Cys-Gly-OH [II] | 56% | 1% | –
γ-Glt-Cys-Gly-OH [III] | 55% | 2% | –
